The text below walks through data of patent US6784153B1, “Methods of homing molecules to lung using membrane dipeptidase” (The Burnham Institute, priority 1998, dated 2004).

For the test, the system named is lung. The experiment in a line: immunohistologic analysis of lung homing phage. It counts as in vivo, mice. As for the experimental part:
Phage displaying homing peptides were detected in lung, pancreas and skin by immunostaining histologic sections obtained 5 min after administration of phage expressing a lung, pancreas or skin homing peptide (“peptide-phage”) to a mouse. Following administration of the peptide-phage, mice were handled as described above and various organs, including lung, pancreas and skin, were removed and fixed in Bouin's solution (SIGMA). Histologic sections were prepared and reacted with anti-M13 (phage) antibodies (Pharmacia Biotech; see U.S. Pat. No. 5,622,699, supra, 1997; Pasqualini and Ruoslahti, supra, 1996). Visualization of the bound anti-M13 antibody was performed using a second antibody conjugated to peroxidase (SIGMA) according to the manufacturer's instructions.
Phage displaying the lung homing peptide, GFE-1 (SEQ ID NO: 1), were administered intravenously to mice and, after 5 minutes of circulation, the lung was isolated and processed as described above. […] However, staining of bronchiolar walls and some larger blood vessels was absent.

Consider CGFECVRQCPERC [lung homing peptide], for which, under “5 min after intravenous phage”, the “immunohistochemical staining of lung” value is “staining of the alveolar capillaries was observed”. Also, the “staining of pancreas and skin after lung homing phage” value (control tissues) was “no staining was observed in pancreas and skin”.
